The text below walks through data of patent EP0844825B1, “INSECTICIDAL N-(SUBSTITUTED ARYLMETHYL)-4- BIS(SUBSTITUTED PHENYL OR PYRIDYL)METHYL]PIPERIDINES” (FMC CORPORATION, priority 1995, dated 1996).

The assay has as its system tobacco budworm (Heliothis virescens [Fabricius]). The assay is described as follows: Diet test: test chemical incorporated into artificial diet of tobacco budworm larvae, 5-day exposure. It is filed as in vivo. As to conditions: for IC50 / LC50 / mortality at 100 µM / pest or weed control at 100 µM: Heliothis virescens, 120 h; for IC50: negative log of the concentration that provides 50% growth inhibition, by linear regression, read-out: pl50 (converted); for IC50 / LC50 / pest or weed control at 100 µM / Percent Growth Inhibition: 5 days, * = average of more than one test; for LC50: negative log of the concentration that provides 50% mortality, read-out: pLC50 (converted); for mortality at 100 µM / pest or weed control at 100 µM: feed or water; for mortality at 100 µM: read-out: Percent Mortality; for pest or weed control at 100 µM / Percent Growth Inhibition: rate of application 4 (negative log of molar concentration in the diet), second instar larvae, 25°C; for pest or weed control at 100 µM: read-out: Percent Growth Inhibition. As for the experimental part:
Candidate insecticides were incorporated into an artificial diet for evaluation of insecticidal activity against the tobacco budworm (Heliothis virescens [Fabricius]) in the following manner. Stock solutions of test chemical in dimethyl sulfoxide, ranging from […], were prepared for each rate of application. One hundred microliters of each of the stock solutions was manually stirred into 50 mL of a molten (65-70°C) wheat germ-based artificial diet. The 50 mL of molten diet containing the test chemical was poured evenly into twenty wells in the outer two rows on each side of a twenty-five well, five row plastic tray. (Each well in the tray was about 1 cm in depth, with an opening of 3 cm by 4 cm at the lip.) Molten diet containing only dimethyl sulfoxide at the levels used in the test chemical-treated diet was poured into the five wells in the third (center) row of the tray. Each tray therefore contained one test chemical at a single rate of application, together with an untreated control. The rates of application, expressed as the negative log of the molar concentration, and the corresponding concentrations of the stock solution prepared for each rate are shown below:
Single second instar tobacco budworm larvae, selected at a stage of growth at which they uniformly weigh about 5 mg each, were placed in each well. Upon completion of infestation, a sheet of clear plastic was heat-sealed over the top of the tray by use of a common household flat.iron. The trays were held at 25°C at 60% relative humidity for five days in a growth chamber. Lighting was set at 14 hours of light and 10 hours of darkness. After the 5-day exposure period, mortality counts were taken, and the surviving insects were weighed. From the weights of the surviving insects that fed on the treated diet as compared to those insects that fed on the untreated diet, the percent growth inhibition caused by each test chemical was determined. […] Also, where possible, the negative log of the concentration of the test chemical that provided 50% mortality (pLC50) was determined.

As for `COc1ccc(CCN2CCC(C(O)(c3ccc(OC(F)(F)F)cc3)c3ccc(OC(F)(F)F)cc3)CC2)cc1` [Compound 2, N-[2-(4-methoxyphenyl)ethyl]-4-[bis(4-trifluoromethoxyphenyl)hydroxymethyl]piperidine], the IC50 is 2.51 µM, the LC50 is above 100 µM, the mortality at 100 µM was 25% and the pest or weed control at 100 µM worked out at 98%.

For `CC(=O)Nc1ccc(CN2CCC(C(O)(c3ccc(OC(F)(F)F)cc3)c3ccc(OC(F)(F)F)cc3)CC2)cc1` [Compound 3, N-[4-(methylcarbonylamino)phenylmethyl]-4-[bis(4-trifluoromethoxyphenyl)hydroxymethyl]piperidine], the IC50 is 20 µM, the mortality at 100 µM was determined as 0% and the pest or weed control at 100 µM came to 95%.

Take `Cn1ccc(-c2ccc(CN3CCC(C(O)(c4ccc(OC(F)(F)F)cc4)c4ccc(OC(F)(F)F)cc4)CC3)cc2)c1` [Compound 4]: the mortality at 100 µM came out at 100%.

Turning to `Cc1cc(C)n(-c2ccc(CN3CCC(C(O)(c4ccc(OC(F)(F)F)cc4)c4ccc(OC(F)(F)F)cc4)CC3)cc2)n1` [Compound 5], the mortality at 100 µM is 100%.

As for `Cc1noc(-c2ccc(CN3CCC(C(O)(c4ccc(OC(F)(F)F)cc4)c4ccc(OC(F)(F)F)cc4)CC3)cc2)n1` [Compound 6], the mortality at 100 µM was determined as 100%.

Consider `Cn1nnnc1-c1ccc(CN2CCC(C(O)(c3ccc(OC(F)(F)F)cc3)c3ccc(OC(F)(F)F)cc3)CC2)cc1` [Compound 8, N-[4-(1-methyltetrazol-5-yl)phenylmethyl]-4-[bis(4-trifluoromethoxyphenyl)hydroxymethyl]piperidine], for which the IC50 was 31.6 µM, the mortality at 100 µM was 0% and the pest or weed control at 100 µM turned out to be 79%.

With `Cn1ncn(-c2ccc(CN3CCC(C(O)(c4ccc(C(F)(F)F)cc4)c4ccc(C(F)(F)F)cc4)CC3)cc2)c1=O` [Compound 12, N-[4-(4,5-dihydro-1-methyl-5-oxo-1H-1,2,4-triazol-4-yl)phenylmethyl]-4-[bis(4-trifluoromethylphenyl)hydroxymethyl]piperidine], the IC50 is 3.98 µM, the LC50 is above 100 µM, the mortality at 100 µM worked out at 35% and the pest or weed control at 100 µM came out at 98%.

`OC(c1ccc(OC(F)(F)F)cc1)(c1ccc(OC(F)(F)F)cc1)C1CCN(Cc2ccc(-c3csnn3)cc2)CC1` [Compound 14]: the IC50 was 3.16 µM, the LC50 was 31.6 µM, the mortality at 100 µM amounted to 100% and the “Percent Growth Inhibition” value is reported as 99%.

Turning to `Cn1nnc(-c2ccc(C[N+]3([O-])CCC(C(O)(c4ccc(OC(F)(F)F)cc4)c4ccc(OC(F)(F)F)cc4)CC3)cc2)n1` (centres unmarked) [Compound 15], the mortality at 100 µM is 100%.

Regarding `CC(C)c1cnc(-c2ccc(CN3CCC(C(O)(c4ccc(C(F)(F)F)cc4)c4ccc(C(F)(F)F)cc4)CC3)cc2)o1` [Compound 19], the mortality at 100 µM turned out to be 90%.

Turning to `O=C1OCCN1c1ccc(CN2CCC(C(O)(c3ccc(C(F)(F)F)cc3)c3ccc(C(F)(F)F)cc3)CC2)cc1` [Compound 20], the mortality at 100 µM worked out at 10%.

For the compound `O=C1OCCN1c1ccc(C[N+]2([O-])CCC(C(O)(c3ccc(C(F)(F)F)cc3)c3ccc(C(F)(F)F)cc3)CC2)cc1` (centres unmarked) [Compound 21], the mortality at 100 µM was found to be 10%.

Turning to `CC1CN(c2ccc(CN3CCC(C(O)(c4ccc(C(F)(F)F)cc4)c4ccc(C(F)(F)F)cc4)CC3)cc2)C(=O)O1` (centres unmarked) [Compound 22], the mortality at 100 µM was determined as 35%.

As to `CC1CN(c2ccc(C[N+]3([O-])CCC(C(O)(c4ccc(C(F)(F)F)cc4)c4ccc(C(F)(F)F)cc4)CC3)cc2)C(=O)O1` (centres unmarked) [Compound 23], the mortality at 100 µM came out at 65%.

On to `CC1CN(C(=O)c2ccc(CN3CCC(C(O)(c4ccc(C(F)(F)F)cc4)c4ccc(C(F)(F)F)cc4)CC3)cc2)C(=O)O1` (centres unmarked) [Compound 24], for which the IC50 is 31.6 µM, the LC50 is above 316 µM, the mortality at 100 µM came to 0% and the “Percent Growth Inhibition” value turned out to be 86%.

For `Cn1cnc(-c2ccc(CN3CCC(C(O)(c4ccc(C(F)(F)F)cc4)c4ccc(C(F)(F)F)cc4)CC3)cc2)n1` [Compound 27], the mortality at 100 µM was found to be 100%.

Take `Cn1cnc(-c2ccc(C[N+]3([O-])CCC(C(O)(c4ccc(C(F)(F)F)cc4)c4ccc(C(F)(F)F)cc4)CC3)cc2)n1` (centres unmarked) [Compound 28]: the mortality at 100 µM amounted to 100%.

As to `OC(c1ccc(C(F)(F)F)cc1)(c1ccc(C(F)(F)F)cc1)C1CCN(Cc2ccc(Oc3nsnc3Cl)cc2)CC1` [Compound 29], the mortality at 100 µM was 60%.

With `[O-][N+]1(Cc2ccc(Oc3nsnc3Cl)cc2)CCC(C(O)(c2ccc(C(F)(F)F)cc2)c2ccc(C(F)(F)F)cc2)CC1` (centres unmarked) [Compound 30], the mortality at 100 µM came to 40%.

Regarding `CC(C)n1nnc(-c2ccc(CN3CCC(C(O)(c4ccc(C(F)(F)F)cc4)c4ccc(C(F)(F)F)cc4)CC3)cc2)n1` [Compound 35], the mortality at 100 µM was found to be 100%.

Regarding `CC(C)n1nnc(-c2ccc(C[N+]3([O-])CCC(C(O)(c4ccc(C(F)(F)F)cc4)c4ccc(C(F)(F)F)cc4)CC3)cc2)n1` (centres unmarked) [Compound 36], the mortality at 100 µM is 100%.

With `CC(C)(C)n1nnc(-c2ccc(CN3CCC(C(O)(c4ccc(C(F)(F)F)cc4)c4ccc(C(F)(F)F)cc4)CC3)cc2)n1` [Compound 37], the mortality at 100 µM came out at 100%.

On to `OC(c1ccc(C(F)(F)F)cc1)(c1ccc(C(F)(F)F)cc1)C1CCN(Cc2ccc(-c3nnn(C(F)F)n3)cc2)CC1` [Compound 38], for which the IC50 was 0.631 µM, the LC50 was 2.51 µM, the mortality at 100 µM turned out to be 100% and the “Percent Growth Inhibition” value is 100%.

With `[O-][N+]1(Cc2ccc(-c3nnn(C(F)F)n3)cc2)CCC(C(O)(c2ccc(C(F)(F)F)cc2)c2ccc(C(F)(F)F)cc2)CC1` (centres unmarked) [Compound 39], the mortality at 100 µM worked out at 100%.

For `OC(c1ccc(C(F)(F)F)cc1)(c1ccc(C(F)(F)F)cc1)C1CCN(Cc2ccc(-c3nnn(CCCF)n3)cc2)CC1` [Compound 40], the IC50 was 0.631 µM, the LC50 is 3.98 µM, the mortality at 100 µM is 100% and the “Percent Growth Inhibition” value is reported as 100%.

Consider `COCn1nnc(-c2ccc(CN3CCC(C(O)(c4ccc(C(F)(F)F)cc4)c4ccc(C(F)(F)F)cc4)CC3)cc2)n1` [Compound 41], for which the mortality at 100 µM was 100%.

For the compound `COCn1nnc(-c2ccc(C[N+]3([O-])CCC(C(O)(c4ccc(C(F)(F)F)cc4)c4ccc(C(F)(F)F)cc4)CC3)cc2)n1` (centres unmarked) [Compound 42], the mortality at 100 µM is 100%.

In the case of `OC(c1ccc(C(F)(F)F)cc1)(c1ccc(C(F)(F)F)cc1)C1CCN(Cc2ccc(-c3ccccn3)cc2)CC1` [Compound 43], the IC50 is at most 0.316 µM, the LC50 is 3.16 µM, the mortality at 100 µM was found to be 100% and the “Percent Growth Inhibition” value is reported as 100%.

With `[O-][N+]1(Cc2ccc(-c3ccccn3)cc2)CCC(C(O)(c2ccc(C(F)(F)F)cc2)c2ccc(C(F)(F)F)cc2)CC1` (centres unmarked) [Compound 44], the mortality at 100 µM is 100%.

In the case of `[O-][n+]1ccccc1-c1ccc(CN2CCC(C(O)(c3ccc(C(F)(F)F)cc3)c3ccc(C(F)(F)F)cc3)CC2)cc1` [Compound 45], the mortality at 100 µM came to 100%.

On to `[O-][n+]1ccccc1-c1ccc(C[N+]2([O-])CCC(C(O)(c3ccc(C(F)(F)F)cc3)c3ccc(C(F)(F)F)cc3)CC2)cc1` (centres unmarked) [Compound 46], for which the mortality at 100 µM worked out at 100%.

For `OC(c1ccc(C(F)(F)F)cc1)(c1ccc(C(F)(F)F)cc1)C1CCN(Cc2ccc(-c3ccc(Cl)cn3)cc2)CC1` [Compound 47], the IC50 is 31.6 µM, the LC50 was 31.6 µM, the mortality at 100 µM worked out at 100% and the “Percent Growth Inhibition” value amounted to 100%.

For `[O-][N+]1(Cc2ccc(-c3ccc(Cl)cn3)cc2)CCC(C(O)(c2ccc(C(F)(F)F)cc2)c2ccc(C(F)(F)F)cc2)CC1` (centres unmarked) [Compound 48], the mortality at 100 µM amounted to 85%.

Take `Cc1cccc(-c2ccc(CN3CCC(C(O)(c4ccc(C(F)(F)F)cc4)c4ccc(C(F)(F)F)cc4)CC3)cc2)n1` [Compound 49]: the mortality at 100 µM was found to be 100%.

As for `Cc1cccc(-c2ccc(C[N+]3([O-])CCC(C(O)(c4ccc(C(F)(F)F)cc4)c4ccc(C(F)(F)F)cc4)CC3)cc2)n1` (centres unmarked) [Compound 50], the mortality at 100 µM was determined as 100%.

With `Cc1ccc(-c2ccc(CN3CCC(C(O)(c4ccc(C(F)(F)F)cc4)c4ccc(C(F)(F)F)cc4)CC3)cc2)nc1` [Compound 51], the mortality at 100 µM turned out to be 100%.

For `OC(c1ccc(C(F)(F)F)cc1)(c1ccc(C(F)(F)F)cc1)C1CCN(Cc2ccc(Oc3ccccn3)cc2)CC1` [Compound 53], the mortality at 100 µM was 100%.
